# In ChEMBL document CHEMBL5120831, “Pep5-based antitumor peptides containing multifunctional fragments with enhanced activity and synergistic effect” (Eur J Med Chem, 2022):
# pIC50: −log10 of the molar value. Active and inactive are the calls of the source. The calls are words filed in the database; no cut-off is given here. Numbered stars: 1 amine (or outer) side, 2 acyl side, 3 side chain; on linkers, the order of the positions; unused ones are H or OH. Bridge positions count the residues as written; N and C are the ends. Square brackets hold non-standard residues; d marks the D form. Peptide text beside a SMILES is read from it. I, II: the chains in the order shown. ξ: configuration not given here. X1 = O=C([C@H](Cc1c[nH]c2ccccc12)N(c1ccc([N+](=O)[O-])c2nonc12)[*:1])[*:2]; ξN = NC(=O)CC(N)C(=O)O
# Columns and labels:
# [1] = Cytotoxicity against human L02 cells assessed as reduction in cell viability measured after 24 hrs by CCK-8 assay; assay type: toxicity, cell-based
# BEAS-2B = assay: Induction of apoptosis in human BEAS-2B cells assessed as reduction in viable cells at 15 uM measured after 24 hrs by Annexin V-FITC/propidium iodide staining based flow cytometry; assay type: toxicity, cell-based
# HepG2 [2] = assay: Induction of apoptosis in human HepG2 cells assessed as viable cells at 15 uM measured after 24 hrs by Annexin V-FITC/propidium iodide staining based flow cytometry relative to control; assay type: functional; conditions: read-out: Activity
# L02 = assay: Induction of apoptosis in human L02 cells assessed as reduction in viable cells at 15 uM measured after 24 hrs by Annexin V-FITC/propidium iodide staining based flow cytometry; assay type: toxicity, cell-based; conditions: l02, 24 h
# A549 [3] = assay: Induction of apoptosis in human A549 cells assessed as viable cells at 15 uM measured after 24 hrs by Annexin V-FITC/propidium iodide staining based flow cytometry relative to control; assay type: functional; conditions: read-out: Activity
# [4] = Cytotoxicity against human BEAS-2B cells assessed as reduction in cell viability measured after 24 hrs by CCK-8 assay; assay type: toxicity, cell-based
# A549 [5] = assay: Cytotoxicity against human A549 cells assessed as cell viability at 30 uM measured after 24 hrs by CCK-8 assay relative to control; assay type: functional; conditions: read-out: Activity
# A549 [6] = assay: Cytotoxicity against human A549 cells assessed as reduction in cell viability measured after 24 hrs by CCK-8 assay; assay type: functional, cell-based; conditions: for pIC50: A549, 24 h
# HepG2 [7] = assay: Cytotoxicity against human HepG2 cells assessed as reduction in cell viability measured after 24 hrs by CCK-8 assay; assay type: functional, cell-based; conditions: for pIC50: HepG2, 24 h
# HepG2 [8] = assay: Cytotoxicity against human HepG2 cells assessed as cell viability at 30 uM measured after 24 hrs by CCK-8 assay relative to control; assay type: functional; conditions: read-out: Activity
# HepG2 [9] = assay: Induction of morphological changes in human HepG2 cells assessed as decrease in cell number at 15 uM measured after 24 hrs by high-throughput microscopy; assay type: functional, cell-based
# A549 [10] = assay: Induction of apoptosis in human A549 cells assessed as increase in necrotic cells at 15 uM measured after 24 hrs by Annexin V-FITC/propidium iodide staining based flow cytometry; assay type: functional, cell-based
# A549 [11] = assay: Induction of apoptosis in human A549 cells assessed as increase in late apoptotic cells at 15 uM measured after 24 hrs by Annexin V-FITC/propidium iodide staining based flow cytometry; assay type: functional, cell-based
# HepG2 [12] = assay: Induction of cell membrane disruption in human HepG2 cells assessed as increase in LDH release at 15 uM measured after 1 hr by LDH releasing reagent based assay
# HepG2 [13] = assay: Induction of apoptosis in human HepG2 cells assessed as increase in late apoptotic cells at 15 uM measured after 24 hrs by Annexin V-FITC/propidium iodide staining based flow cytometry; assay type: functional, cell-based
# A549 [14] = assay: Induction of cell membrane disruption in human A549 cells assessed as increase in LDH release at 15 uM measured after 1 hr by LDH releasing reagent based assay
# HepG2 [15] = assay: Induction of apoptosis in human HepG2 cells assessed as increase in necrotic cells at 15 uM measured after 24 hrs by Annexin V-FITC/propidium iodide staining based flow cytometry; assay type: functional, cell-based
# HepG2 [16] = assay: Induction of morphological changes in human HepG2 cells assessed as appearance of abnormal cell morphology at 15 uM measured after 24 hrs by high-throughput microscopy; assay type: functional, cell-based
# [17] = Drug uptake in human BEAS-2B cells at 15 uM measured after 1 hr by Hoechst 33258 staining based confocal laser scanning microscopy; assay type: ADME, cell-based
# [18] = Drug uptake in human HepG2 cells at 15 uM measured after 1 hr by Hoechst 33258 staining based confocal laser scanning microscopy; assay type: ADME, cell-based; conditions: hepg2, 1 h
# [19] = Drug uptake in human BEAS-2B cells at 15 uM measured after 1 hr by Hoechst 33258 staining based flow cyotmetry; assay type: ADME, cell-based
# [20] = Drug uptake in human A549 cells at 15 uM measured after 1 hr by Hoechst 33258 staining based flow cyotmetry; assay type: ADME, cell-based; conditions: a549, 1 h
# [21] = Drug uptake in human L02 cells at 15 uM measured after 1 hr by Hoechst 33258 staining based confocal laser scanning microscopy; assay type: ADME, cell-based; conditions: l02, 1 h
# [22] = Drug uptake in human HepG2 cells at 15 uM measured after 1 hr by Hoechst 33258 staining based flow cyotmetry; assay type: ADME, cell-based; conditions: hepg2, 1 h
# [23] = Drug uptake in human A549 cells at 15 uM measured after 1 hr by Hoechst 33258 staining based confocal laser scanning microscopy; assay type: ADME, cell-based; conditions: a549, 1 h
# [24] = Drug uptake in human L02 cells at 15 uM measured after 1 hr by Hoechst 33258 staining based flow cyotmetry; assay type: ADME, cell-based; conditions: l02, 1 h
Compound,IC50 at 24 h [1] [µM],Activity (BEAS-2B),Activity (L02),IC50 at 24 h [4] [µM],pIC50 (A549 [6]),pIC50 (HepG2 [7]),Activity (HepG2 [9]),Activity (A549 [10]),Activity (A549 [11]),Activity (HepG2 [12]),Activity (HepG2 [13]),Activity (A549 [14]),Activity (HepG2 [15]),Activity (HepG2 [16]),also measured
N=C(N)NCCC[C@H](NC(=O)[C@H](CCCNC(=N)N)NC(=O)[C@H](CCCNC(=N)N)NC(=O)[C@H](CCCNC(=N)N)NC(=O)[C@H](CCCNC(=N)N)NC(=O)[C@H](CCCNC(=N)N)NC(=O)[C@H](CCCNC(=N)N)NC(=O)[C@H](CCCNC(=N)N)NC(=O)[C@@H](N)CCCNC(=N)N)C(=O)O,> 100,Non-Toxic,Non-Toxic,> 100,< 4.00,< 4.00,,,,,,,,,viability at 15 µM (HepG2 [2]): > 80%; viability at 15 µM (A549 [3]): > 80%; viability at 30 µM (A549 [5]): > 90%; viability at 30 µM (HepG2 [8]): > 90%
I: H-WELVVLGKLGLRKRLRKFRNKIKEK / II: H-GLRKRLRKFR[ξN]KIKEK-OH (amide I:C-II:4),18.4,Non-Toxic,Non-Toxic,19.8,4.88,4.88,Active,Active,Active,Active,Active,Active,Active,Active,
CC(C)C[C@H](NC(=O)[C@H](CCCCN)NC(=O)CNC(=O)[C@H](CC(C)C)NC(=O)[C@@H](NC(=O)[C@@H](NC(=O)[C@H](CC(C)C)NC(=O)[C@H](CCC(=O)O)NC(=O)[C@@H](N)Cc1c[nH]c2ccccc12)C(C)C)C(C)C)C(=O)N[C@@H](CC(C)C)C(=O)N[C@@H](CC(C)C)C(=O)N[C@@H](Cc1c[nH]cn1)C(=O)N[C@@H](Cc1c[nH]cn1)C(=O)N[C@@H](CC(C)C)C(=O)N[C@@H](CC(C)C)C(=O)N[C@@H](Cc1c[nH]cn1)C(=O)N[C@@H](Cc1c[nH]cn1)C(=O)N[C@@H](CC(C)C)C(=O)N[C@@H](CC(C)C)C(=O)N[C@@H](Cc1c[nH]cn1)C(=O)N[C@@H](Cc1c[nH]cn1)C(=O)N[C@@H](CCCNC(=N)N)C(=O)N[C@@H](CCCNC(=N)N)C(=O)N[C@@H](CCCNC(=N)N)C(=O)N[C@@H](CCCNC(=N)N)C(=O)N[C@@H](CCCNC(=N)N)C(=O)N[C@@H](CCCNC(=N)N)C(=O)N[C@@H](CCCNC(=N)N)C(=O)N[C@@H](CCCNC(=N)N)C(=O)N[C@@H](CCCNC(=N)N)C(=O)O (H-WELVVLGKLLLHHLLHHLLHHRRRRRRRRR-OH),15.6,Non-Toxic,Non-Toxic,18.5,4.98,4.99,Active,Active,Active,Active,Active,Active,Active,Active,
N=C(N)NCCC[C@H](NC(=O)[C@H](CCCNC(=N)N)NC(=O)[C@H](CCCNC(=N)N)NC(=O)[C@H](CCC(N)=O)NC(=O)[C@H](CCCNC(=N)N)NC(=O)[C@H](CCCNC(=N)N)NC(=O)[C@H](CCCCN)NC(=O)[C@H](CCCCN)NC(=O)[C@H](CCCNC(=N)N)NC(=O)CNC(=O)[C@@H](N)Cc1ccc(O)cc1)C(=O)O,> 100,Non-Toxic,Non-Toxic,> 100,< 4.00,< 4.00,,,,,,,,,viability at 15 µM (HepG2 [2]): > 80%; viability at 15 µM (A549 [3]): > 80%; viability at 30 µM (A549 [5]): > 90%; viability at 30 µM (HepG2 [8]): > 90%
CC(C)C[C@H](NC(=O)[C@H](CCCCN)NC(=O)CNC(=O)[C@H](CC(C)C)NC(=O)[C@@H](NC(=O)[C@@H](NC(=O)[C@H](CC(C)C)NC(=O)[C@H](CCC(=O)O)NC(=O)[C@@H](N)Cc1c[nH]c2ccccc12)C(C)C)C(C)C)C(=O)O (H-WELVVLGKL-OH),,Non-Toxic,Non-Toxic,,4.05,,,,,,,,,,
CC(C)C[C@H](NC(=O)[C@H](CCCCN)NC(=O)CNC(=O)[C@H](CC(C)C)NC(=O)[C@@H](NC(=O)[C@@H](NC(=O)[C@H](CC(C)C)NC(=O)[C@H](CCC(=O)O)NC(=O)[C@H](Cc1c[nH]c2ccccc12)Nc1ccc([N+](=O)[O-])c2nonc12)C(C)C)C(C)C)C(=O)N[C@@H](CC(C)C)C(=O)N[C@@H](CC(C)C)C(=O)N[C@@H](Cc1c[nH]cn1)C(=O)N[C@@H](Cc1c[nH]cn1)C(=O)N[C@@H](CC(C)C)C(=O)N[C@@H](CC(C)C)C(=O)N[C@@H](Cc1c[nH]cn1)C(=O)N[C@@H](Cc1c[nH]cn1)C(=O)N[C@@H](CC(C)C)C(=O)N[C@@H](CC(C)C)C(=O)N[C@@H](Cc1c[nH]cn1)C(=O)N[C@@H](Cc1c[nH]cn1)C(=O)N[C@@H](CCCNC(=N)N)C(=O)N[C@@H](CCCNC(=N)N)C(=O)N[C@@H](CCCNC(=N)N)C(=O)N[C@@H](CCCNC(=N)N)C(=O)N[C@@H](CCCNC(=N)N)C(=O)N[C@@H](CCCNC(=N)N)C(=O)N[C@@H](CCCNC(=N)N)C(=O)N[C@@H](CCCNC(=N)N)C(=O)N[C@@H](CCCNC(=N)N)C(=O)O (H-[X1]ELVVLGKLLLHHLLHHLLHHRRRRRRRRR-OH),,,,,,,,,,,,,,,Drug uptake [17]: Active; Drug uptake [18]: Active; Drug uptake [19]: Active; Drug uptake [20]: Active; Drug uptake [21]: Active; Drug uptake [22]: Active; Drug uptake [23]: Active; Drug uptake [24]: Active
CC(C)C[C@H](NC(=O)[C@H](CCCCN)NC(=O)CNC(=O)[C@H](CC(C)C)NC(=O)[C@@H](NC(=O)[C@@H](NC(=O)[C@H](CC(C)C)NC(=O)[C@H](CCC(=O)O)NC(=O)[C@@H](N)Cc1c[nH]c2ccccc12)C(C)C)C(C)C)C(=O)N[C@@H](CCCNC(=N)N)C(=O)N[C@@H](CCCNC(=N)N)C(=O)N[C@@H](CCCNC(=N)N)C(=O)N[C@@H](CCCNC(=N)N)C(=O)N[C@@H](CCCNC(=N)N)C(=O)N[C@@H](CCCNC(=N)N)C(=O)N[C@@H](CCCNC(=N)N)C(=O)N[C@@H](CCCNC(=N)N)C(=O)N[C@@H](CCCNC(=N)N)C(=O)O (H-WELVVLGKLRRRRRRRRR-OH),21.6,Non-Toxic,Non-Toxic,22.8,4.76,4.84,Active,Active,Active,Active,Active,Active,Active,Active,Activity (A549 [6]; DDE = dose-dependent effect): Dde; Activity (HepG2 [7]; DDE = dose-dependent effect): Dde
